# In ChEMBL document CHEMBL6114961, “Novel isoxazole thiophene-containing compounds active against Mycobacterium tuberculosis” (Bioorg Med Chem Lett, 2025):
# Legend:
# [1] = test system: HepG2; test: Cytotoxicity against human HepG2 cells measured after 3 days by Cell Titer-Glo Luminescent Cell Viability Assay; assay type: functional; details: HepG2, 72 h, time 3 day
# [2] = test system: Mycobacterium tuberculosis; test: Antituberculosis activity against Mycobacterium tuberculosis H37Rv infected in human THP-1 cells assessed as reduction in bacterial growth pre-infected with bacteria for 24 hrs followed by compound addition and measured 3 days by luminescence based intramacrophage assay; assay type: functional, organism-based
# [3] = Half life in male CD-1 mouse at 20 mg/kg, po; assay type: ADME, organism-based; details: in vivo
# [4] = Metabolic stability in mouse liver microsomes assessed as intrinsic clearance; assay type: ADME, Microsome; details: read-out: CLH
# [5] = target: Cytochrome P450 2C9 (Homo sapiens, UniProt P11712); test: Inhibition of CYP2C9 (unknown origin); assay type: ADME
# [6] = Oral bioavailability in male CD-1 mouse at 20 mg/kg; assay type: ADME, organism-based; details: in vivo
# [7] = target: Voltage-gated inwardly rectifying potassium channel KCNH2 (Homo sapiens, UniProt Q12809); test: Inhibition of human ERG; assay type: toxicity
# [8] = AUC (0 tot 24 hrs) in male CD-1 mouse at 20 mg/kg, po; assay type: ADME, organism-based; details: in vivo
# [9] = Plasma protein binding in mouse assessed as unbound fraction; assay type: ADME, cell-free
# [10] = Tmax in male CD-1 mouse at 20 mg/kg, po; assay type: ADME, organism-based; details: in vivo
# [11] = AUC (0 tot 24 hrs) in male CD-1 mouse at 3 mg/kg, iv; assay type: ADME, organism-based; details: in vivo
# [12] = test system: Mycobacterium tuberculosis; test: Bactericidal activity against non-replicating Mycobacterium tuberculosis Hu-Coates model assessed as reduction in CFU at 20 uM; assay type: functional
# [13] = MRT (0 tot 24 hrs) in male CD-1 mouse at 20 mg/kg, po; assay type: ADME, organism-based; details: in vivo
# [14] = Plasma concentration in male CD-1 mouse at 20 mg/kg, po measured for 14 hrs; assay type: ADME, organism-based
# [15] = target: T1, Cytochrome P450 1A2 (Homo sapiens, UniProt P05177); test: Inhibition of CYP1A2 (unknown origin); assay type: ADME
# T1 sequence (P05177 whole entry): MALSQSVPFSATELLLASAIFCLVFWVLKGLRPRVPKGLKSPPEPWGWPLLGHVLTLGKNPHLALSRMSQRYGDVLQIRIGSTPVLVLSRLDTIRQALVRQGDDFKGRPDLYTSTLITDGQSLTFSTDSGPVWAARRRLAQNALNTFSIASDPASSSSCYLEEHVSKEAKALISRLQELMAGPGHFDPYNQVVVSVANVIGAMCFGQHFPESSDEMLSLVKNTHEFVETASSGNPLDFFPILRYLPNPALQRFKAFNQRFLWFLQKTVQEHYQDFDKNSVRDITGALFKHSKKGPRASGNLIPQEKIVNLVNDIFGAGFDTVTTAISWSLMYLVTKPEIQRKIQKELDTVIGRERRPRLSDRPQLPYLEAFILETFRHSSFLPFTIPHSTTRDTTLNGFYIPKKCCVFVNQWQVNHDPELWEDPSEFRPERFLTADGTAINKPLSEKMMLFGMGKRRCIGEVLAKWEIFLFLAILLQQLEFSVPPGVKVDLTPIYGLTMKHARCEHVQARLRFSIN
# [16] = Cmax in male CD-1 mouse at 20 mg/kg, po; assay type: ADME, organism-based; details: in vivo
# [17] = target: Cytochrome P450 2D6 (Homo sapiens, UniProt P10635); test: Inhibition of CYP2D6 (unknown origin); assay type: ADME
# [18] = Selectivity index, ratio of CC50 for Cytotoxicity against human HepG2 cells to MIC for antituberculosis activity against Mycobacterium tuberculosis H37Rv assessed as reduction in bacterial growth; assay type: toxicity, cell-based, Hep G2; details: read-out: Selectivity Index
# [19] = Apparent permeability in human Caco-2 cells across basolateral side to apical side; assay type: ADME, cell-based
# [20] = test system: Mycobacterium tuberculosis; test: Bactericidal activity against non-replicating Mycobacterium tuberculosis Hu-Coates model assessed as reduction in CFU at 20 uM in presence of BPaL; assay type: functional
# [21] = target: Cytochrome P450 2C19 (Homo sapiens, UniProt P33261); test: Inhibition of CYP2C19 (unknown origin); assay type: ADME
# [22] = Apparent permeability in human Caco-2 cells across apical to basolateral side; assay type: ADME, cell-based
# [23] = test system: Mycobacterium tuberculosis; test: Antituberculosis activity against Mycobacterium tuberculosis H37Rv assessed as reduction in bacterial growth measured after 7 days using 7H9 broth by Alamar blue staining based analysis; assay type: functional; details: 168 h, time 7 day
# [24] = target: Cytochrome P450 3A4 (Homo sapiens, UniProt P08684); test: Inhibition of CYP3A4 (unknown origin); assay type: ADME
# [25] = Plasma concentration in male CD-1 mouse at 20 mg/kg, po measured for 6 hrs; assay type: ADME, organism-based
# Cytochrome P450 3A4, sequence (P08684 whole entry): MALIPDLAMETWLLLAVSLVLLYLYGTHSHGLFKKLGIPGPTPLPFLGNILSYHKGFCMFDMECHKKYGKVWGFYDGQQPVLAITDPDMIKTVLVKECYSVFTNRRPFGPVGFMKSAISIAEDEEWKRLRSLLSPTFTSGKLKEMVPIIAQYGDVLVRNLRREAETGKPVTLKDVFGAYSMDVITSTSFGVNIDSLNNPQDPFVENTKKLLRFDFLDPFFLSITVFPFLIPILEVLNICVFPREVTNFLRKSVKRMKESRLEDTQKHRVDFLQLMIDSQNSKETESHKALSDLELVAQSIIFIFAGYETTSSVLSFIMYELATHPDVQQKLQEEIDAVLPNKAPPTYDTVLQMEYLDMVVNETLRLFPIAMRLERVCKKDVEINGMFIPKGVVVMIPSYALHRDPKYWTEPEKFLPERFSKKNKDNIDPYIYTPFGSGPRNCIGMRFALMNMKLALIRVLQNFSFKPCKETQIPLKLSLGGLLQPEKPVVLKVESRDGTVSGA
# Cytochrome P450 2D6, sequence (P10635 whole entry): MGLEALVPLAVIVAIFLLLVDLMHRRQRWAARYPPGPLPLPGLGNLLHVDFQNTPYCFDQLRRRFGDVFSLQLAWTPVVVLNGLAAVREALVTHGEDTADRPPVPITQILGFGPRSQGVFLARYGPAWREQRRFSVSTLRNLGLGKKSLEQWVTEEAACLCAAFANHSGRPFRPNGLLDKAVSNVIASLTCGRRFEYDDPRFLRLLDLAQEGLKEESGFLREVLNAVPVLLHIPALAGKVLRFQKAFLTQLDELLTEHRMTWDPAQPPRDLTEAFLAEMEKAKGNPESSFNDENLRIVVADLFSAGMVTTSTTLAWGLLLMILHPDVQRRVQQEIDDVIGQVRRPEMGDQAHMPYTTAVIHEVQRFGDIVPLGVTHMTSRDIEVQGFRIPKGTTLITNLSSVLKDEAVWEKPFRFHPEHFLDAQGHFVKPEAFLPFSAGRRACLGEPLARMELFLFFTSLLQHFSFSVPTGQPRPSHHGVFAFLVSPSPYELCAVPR
# Cytochrome P450 2C19, sequence (P33261 whole entry): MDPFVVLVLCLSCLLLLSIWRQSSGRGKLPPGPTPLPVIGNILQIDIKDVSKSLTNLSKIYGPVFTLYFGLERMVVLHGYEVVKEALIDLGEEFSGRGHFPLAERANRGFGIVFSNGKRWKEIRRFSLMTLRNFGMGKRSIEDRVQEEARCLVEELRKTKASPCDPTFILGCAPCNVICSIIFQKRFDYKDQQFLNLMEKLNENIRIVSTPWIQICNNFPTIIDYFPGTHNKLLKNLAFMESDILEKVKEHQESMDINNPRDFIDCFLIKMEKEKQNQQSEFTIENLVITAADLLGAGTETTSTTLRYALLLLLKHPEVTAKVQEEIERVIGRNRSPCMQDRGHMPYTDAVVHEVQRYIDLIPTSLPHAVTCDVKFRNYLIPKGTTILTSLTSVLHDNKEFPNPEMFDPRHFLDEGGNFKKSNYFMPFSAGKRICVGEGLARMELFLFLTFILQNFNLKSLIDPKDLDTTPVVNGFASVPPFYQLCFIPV
# Cytochrome P450 2C9, sequence (P11712 whole entry): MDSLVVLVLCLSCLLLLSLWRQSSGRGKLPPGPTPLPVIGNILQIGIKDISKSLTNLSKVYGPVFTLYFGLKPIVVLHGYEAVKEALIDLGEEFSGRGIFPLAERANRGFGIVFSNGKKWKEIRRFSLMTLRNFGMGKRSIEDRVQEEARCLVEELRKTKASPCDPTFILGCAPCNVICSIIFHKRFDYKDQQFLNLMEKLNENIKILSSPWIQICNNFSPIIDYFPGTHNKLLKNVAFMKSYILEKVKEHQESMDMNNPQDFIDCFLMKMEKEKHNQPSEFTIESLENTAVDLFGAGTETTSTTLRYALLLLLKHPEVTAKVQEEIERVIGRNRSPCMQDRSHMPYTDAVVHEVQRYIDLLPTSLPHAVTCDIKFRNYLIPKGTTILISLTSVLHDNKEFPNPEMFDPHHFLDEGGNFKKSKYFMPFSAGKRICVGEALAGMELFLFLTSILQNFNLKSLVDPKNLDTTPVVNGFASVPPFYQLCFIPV
# Voltage-gated inwardly rectifying potassium channel KCNH2, sequence (Q12809 whole entry): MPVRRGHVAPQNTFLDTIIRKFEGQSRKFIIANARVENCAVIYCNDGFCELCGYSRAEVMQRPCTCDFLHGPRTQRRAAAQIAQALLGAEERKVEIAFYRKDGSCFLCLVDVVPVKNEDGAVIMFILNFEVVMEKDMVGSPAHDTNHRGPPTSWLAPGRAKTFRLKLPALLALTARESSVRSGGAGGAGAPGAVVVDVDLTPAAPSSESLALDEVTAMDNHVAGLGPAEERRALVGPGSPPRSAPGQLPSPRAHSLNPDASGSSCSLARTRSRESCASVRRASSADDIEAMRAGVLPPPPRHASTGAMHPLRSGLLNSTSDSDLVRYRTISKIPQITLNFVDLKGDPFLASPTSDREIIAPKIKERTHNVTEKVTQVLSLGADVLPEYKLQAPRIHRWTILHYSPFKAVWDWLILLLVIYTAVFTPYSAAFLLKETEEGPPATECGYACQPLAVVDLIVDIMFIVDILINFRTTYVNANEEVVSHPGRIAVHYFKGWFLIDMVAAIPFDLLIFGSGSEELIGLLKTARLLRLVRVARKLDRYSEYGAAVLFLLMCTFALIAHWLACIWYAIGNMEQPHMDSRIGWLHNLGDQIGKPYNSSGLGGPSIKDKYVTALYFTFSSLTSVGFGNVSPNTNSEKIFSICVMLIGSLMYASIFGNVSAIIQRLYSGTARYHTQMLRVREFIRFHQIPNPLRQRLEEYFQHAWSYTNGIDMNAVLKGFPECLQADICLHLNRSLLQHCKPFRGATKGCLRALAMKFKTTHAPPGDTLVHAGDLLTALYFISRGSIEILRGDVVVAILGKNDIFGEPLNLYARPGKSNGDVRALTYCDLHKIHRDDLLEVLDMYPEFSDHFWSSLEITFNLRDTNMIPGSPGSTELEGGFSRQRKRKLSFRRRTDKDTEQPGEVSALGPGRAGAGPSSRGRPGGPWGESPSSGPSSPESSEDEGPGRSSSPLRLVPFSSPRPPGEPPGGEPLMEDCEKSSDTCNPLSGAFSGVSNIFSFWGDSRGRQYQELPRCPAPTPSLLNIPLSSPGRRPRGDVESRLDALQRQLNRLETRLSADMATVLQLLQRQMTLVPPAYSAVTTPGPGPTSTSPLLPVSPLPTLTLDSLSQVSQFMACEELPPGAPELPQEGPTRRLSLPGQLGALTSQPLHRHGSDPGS
structure (smiles),measurement,setting,value
O=S(=O)(Nc1cc(-c2ccsc2)no1)C1CCOC1 (stereo unspecified),CC50,[1],> 40 µM
same,EC50,[2],> 25 µM
O=S(=O)(Nc1cc(-c2ccsc2)no1)c1c(F)cccc1F,CC50,[1],> 40 µM
same,EC50,[2],13.9 µM
O=S(=O)(Nc1cc(-c2csc(C(F)(F)F)c2)no1)c1ccccc1F,CC50,[1],> 40 µM
same,EC50,[2],> 25 µM
O=S(=O)(Nc1cc(-c2ccsc2)no1)c1cccc(F)c1,CC50,[1],> 40 µM
same,EC50,[2],24.4 µM
Cc1cc(-c2cc(NS(=O)(=O)c3ccccc3F)on2)c(C)s1,CC50,[1],> 40 µM
same,EC50,[2],24.8 µM
CN(c1cc(-c2ccsc2)no1)S(=O)(=O)c1ccccc1F,CC50,[1],> 40 µM
same,EC50,[2],12.6 µM
O=S(=O)(Nc1cc(-c2ccsc2)no1)c1ccc2c(c1)CC2,CC50,[1],> 40 µM
same,EC50,[2],3.65 µM
O=S(=O)(Nc1cc(-c2ccsc2)no1)c1ccccc1,CC50,[1],> 40 µM
same,EC50,[2],> 25 µM
O=S(=O)(Nc1cc(-c2ccsc2)no1)c1cccc(F)c1F,CC50,[1],> 40 µM
same,EC50,[2],> 25 µM
CC1(C)COCCC1S(=O)(=O)Nc1cc(-c2ccsc2)no1 (stereo unspecified),CC50,[1],> 40 µM
same,EC50,[2],> 25 µM
O=S(=O)(Nc1cc(-c2ccsc2)no1)c1ccccc1Cl,CC50,[1],> 40 µM
same,EC50,[2],14.8 µM
O=S(=O)(Nc1cc(-c2ccsc2)no1)c1cc(F)ccc1F,CC50,[1],> 40 µM
same,EC50,[2],> 25 µM
O=S(=O)(Nc1cc(-c2ccsc2)no1)c1ccc(F)cc1F,CC50,[1],> 40 µM
same,EC50,[2],24.9 µM
O=S(=O)(Nc1cc(-c2ccsc2)no1)C1CCC(F)(F)CC1,CC50,[1],> 40 µM
same,EC50,[2],> 25 µM
O=S(=O)(Nc1cc(-c2ccsc2)no1)c1ccc2c(c1)CCC2,CC50,[1],> 40 µM
same,EC50,[2],24.9 µM
O=S(=O)(CC1CCOCC1)Nc1cc(-c2ccsc2)no1,CC50,[1],> 40 µM
same,EC50,[2],> 25 µM
O=S(=O)(Nc1noc(-c2ccsc2)n1)C1CCOCC1,EC50,[2],> 25 µM
O=S(=O)(Nc1cc(-c2ccsc2)no1)C1CCCCC1,CC50,[1],> 40 µM
same,EC50,[2],24.9 µM
O=C(Nc1cc(-c2ccsc2)no1)c1ccccc1F,CC50,[1],> 40 µM
same,EC50,[2],22.8 µM
O=S(=O)(Nc1cc(-c2ccsc2)no1)c1cccnc1F,CC50,[1],> 40 µM
same,EC50,[2],> 25 µM
O=S(=O)(Nc1cc(-c2cscn2)no1)C1CCOCC1,CC50,[1],> 40 µM
same,EC50,[2],> 25 µM
O=S(=O)(Nc1cc(-c2ccoc2)no1)C1CCOCC1,CC50,[1],> 40 µM
same,EC50,[2],> 25 µM
O=S(=O)(Nc1cc(-c2ccsn2)no1)C1CCOCC1,CC50,[1],> 25 µM
same,EC50,[2],> 25 µM
O=S(=O)(Nc1cc(-c2ccsc2)no1)c1ccccc1F,half-life,[3],1.83 h
same,microsomal CLint,[4],5.6 µL/min/mg
same,IC50,[5],3.2 µM
same,bioavailability,[6],78%
same,IC50,[7],> 30 µM
same,AUC(0-t) at 24 h,[8],4450 ng·h/mL
same,fraction unbound,[9],0.996
same,Tmax,[10],0.67 h
same,AUC,[11],50981 ng·min/mL
same,Activity,[12],1.02 log10CFU
same,MRT last at 24 h,[13],3.44 h
same,concentration at 14 h,[14],949 ng/mL
same,IC50,[15],> 50 µM
same,Cmax,[16],64200 ng/mL
same,IC50,[17],> 50 µM
same,selectivity ratio,[18],> 32
same,Papp B→A,[19],27.3 ×10⁻⁶ cm/s
same,Activity,[20],3 log10CFU
same,IC50,[21],28.2 µM
same,CC50,[1],> 40 µM
same,Papp A→B,[22],3.6 ×10⁻⁶ cm/s
same,MIC90,[23],1.24 µM
same,EC50,[2],2.93 µM
same,IC50,[24],> 50 µM
O=S(=O)(Nc1cc(-c2csc(Cl)c2)no1)C1CCOCC1,CC50,[1],> 40 µM
same,EC50,[2],> 25 µM
O=S(=O)(Nc1cc(-c2ccsc2)no1)C1CCNCC1,CC50,[1],> 40 µM
same,EC50,[2],> 25 µM
O=S(=O)(Nc1cc(-c2cccnc2)no1)c1ccccc1F,CC50,[1],> 40 µM
same,EC50,[2],24.8 µM
O=S(=O)(Nc1cc(-c2ccsc2)no1)c1c(F)cc(F)cc1F,CC50,[1],> 40 µM
same,EC50,[2],> 25 µM
O=S(=O)(Nc1cc(-c2cccs2)no1)C1CCOCC1,CC50,[1],> 40 µM
same,EC50,[2],> 25 µM
O=S(=O)(Nc1cc(-c2ccsc2)no1)C1CCOCC1,half-life,[3],2.19 h
same,microsomal CLint,[4],0.2 µL/min/mg
same,bioavailability,[6],58%
same,AUC(0-t) at 24 h,[8],713 ng·h/mL
same,fraction unbound,[9],0.845
same,Tmax,[10],0.67 h
same,AUC,[11],11076 ng·min/mL
same,MRT last at 24 h,[13],1.7 h
same,Cmax,[16],24200 ng/mL
same,CC50,[1],> 40 µM
same,EC50,[2],1.96 µM
same,concentration at 6 h,[25],613 ng/mL
